Experimental data: PubChem BioAssay (NCI)
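Dose response: 5 concentrations. Exposure: 48 h. Format: 96-well plates. Endpoint: linear interpolation; highest concentration if not reached. The concentration for full growth arrest is given as TGI.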

Experiments:
Assay in all cases: NCI-60 cell line screen, 48 h
PC-3 prostate = test system: PC-3 prostate
SK-MEL-28 melanoma = test system: SK-MEL-28 melanoma
MDA-N = test system: MDA-N
NCI-H522 lung = test system: NCI-H522 lung
MOLT-4 leukemia = test system: MOLT-4 leukemia
CAKI-1 renal = test system: CAKI-1 renal
786-0 renal = test system: 786-0 renal
EKVX NSCLC = test system: EKVX NSCLC
SNB-75 CNS = test system: SNB-75 CNS
UACC-257 melanoma = test system: UACC-257 melanoma
TK-10 renal = test system: TK-10 renal
SNB-19 CNS = test system: SNB-19 CNS
UO-31 renal = test system: UO-31 renal
ACHN renal = test system: ACHN renal
NCI-H460 lung = test system: NCI-H460 lung
U251 CNS = test system: U251 CNS
SK-MEL-5 melanoma = test system: SK-MEL-5 melanoma
MDA-MB-231 breast = test system: MDA-MB-231 breast
SW-620 colon = test system: SW-620 colon
SK-OV-3 ovarian = test system: SK-OV-3 ovarian
CCRF-CEM leukemia = test system: CCRF-CEM leukemia
RXF 393 renal = test system: RXF 393 renal
SF-268 CNS = test system: SF-268 CNS
SF-539 CNS = test system: SF-539 CNS
RPMI-8226 leukemia = test system: RPMI-8226 leukemia
KM12 colon = test system: KM12 colon
MALME-3M melanoma = test system: MALME-3M melanoma
SN12C renal = test system: SN12C renal
HL-60(TB) leukemia = test system: HL-60(TB) leukemia
SR leukemia = test system: SR leukemia
HS 578T breast = test system: HS 578T breast
OVCAR-5 ovarian = test system: OVCAR-5 ovarian
HCC-2998 colon = test system: HCC-2998 colon
LOX IMVI melanoma = test system: LOX IMVI melanoma
SF-295 CNS = test system: SF-295 CNS
COLO 205 colon = test system: COLO 205 colon
HOP-62 NSCLC = test system: HOP-62 NSCLC
UACC-62 melanoma = test system: UACC-62 melanoma
A549 NSCLC = test system: A549 NSCLC
SK-MEL-2 melanoma = test system: SK-MEL-2 melanoma
MDA-MB-435 = test system: MDA-MB-435
IGROV1 ovarian = test system: IGROV1 ovarian
A498 renal = test system: A498 renal
NCI-H23 lung = test system: NCI-H23 lung
DU-145 prostate = test system: DU-145 prostate
M14 melanoma = test system: M14 melanoma
MCF7 breast = test system: MCF7 breast
HCT-116 colon = test system: HCT-116 colon
HCT-15 colon = test system: HCT-15 colon
K-562 leukemia = test system: K-562 leukemia
OVCAR-3 ovarian = test system: OVCAR-3 ovarian
HOP-92 NSCLC = test system: HOP-92 NSCLC
T-47D breast = test system: T-47D breast
OVCAR-8 ovarian = test system: OVCAR-8 ovarian
NCI-H226 lung = test system: NCI-H226 lung
HT29 colon = test system: HT29 colon
NCI/ADR-RES ovarian = test system: NCI/ADR-RES ovarian
OVCAR-4 ovarian = test system: OVCAR-4 ovarian

Which TGI (PC-3 prostate) does the source give for `O=C1c2ccccc2C(=O)c2sc(Nc3ccccc3C(F)(F)F)nc21` here?
Its TGI is 26.1 µM.

And the TGI (SK-MEL-28 melanoma)?
Its TGI is 30.3 µM.

And the TGI (MDA-N)?
The TGI was 30.8 µM.

And the TGI (NCI-H522 lung)?
Its TGI is greater than 100 µM.

What about the TGI (MOLT-4 leukemia) of the same molecule?
Its TGI is 85.1 µM.

What about the TGI (CAKI-1 renal) of the same molecule?
Its TGI is 21.1 µM.

And the TGI (786-0 renal)?
Its TGI is 41 µM.

What about the TGI (EKVX NSCLC) of the same molecule?
The TGI was 55.1 µM.

What about the TGI (SNB-75 CNS) of the same molecule?
The TGI was 35.8 µM.

What about the TGI (UACC-257 melanoma) of the same molecule?
The TGI was 32.4 µM.

And the TGI (TK-10 renal)?
The TGI was 35.7 µM.

What about the TGI (SNB-19 CNS) of the same molecule?
The TGI was 55.2 µM.

What about the TGI (UO-31 renal) of the same molecule?
The TGI was 25.2 µM.

And the TGI (ACHN renal)?
The TGI was 33 µM.

And the TGI (NCI-H460 lung)?
The TGI was 58.1 µM.

And the TGI (U251 CNS)?
The TGI was 22.4 µM.

And the TGI (SK-MEL-5 melanoma)?
The TGI was 22.7 µM.

What about the TGI (MDA-MB-231 breast) of the same molecule?
Its TGI is 16.1 µM.

What about the TGI (SW-620 colon) of the same molecule?
The TGI was 24.4 µM.

What about the TGI (SK-OV-3 ovarian) of the same molecule?
Its TGI is 30.8 µM.

What about the TGI (CCRF-CEM leukemia) of the same molecule?
Its TGI is greater than 100 µM.

What about the TGI (RXF 393 renal) of the same molecule?
The TGI was 39 µM.

What about the TGI (SF-268 CNS) of the same molecule?
Its TGI is 30.1 µM.

What about the TGI (SF-539 CNS) of the same molecule?
The TGI was 45.8 µM.

What about the TGI (RPMI-8226 leukemia) of the same molecule?
The TGI was 74.4 µM.

And the TGI (KM12 colon)?
The TGI was 27.4 µM.

And the TGI (MALME-3M melanoma)?
Its TGI is 29.9 µM.

And the TGI (SN12C renal)?
The TGI was greater than 100 µM.

What about the TGI (HL-60(TB) leukemia) of the same molecule?
Its TGI is 17.7 µM.

And the TGI (SR leukemia)?
The TGI was greater than 100 µM.

And the TGI (HS 578T breast)?
The TGI was 48.2 µM.

What about the TGI (OVCAR-5 ovarian) of the same molecule?
The TGI was 44.6 µM.

And the TGI (HCC-2998 colon)?
Its TGI is 35.2 µM.

And the TGI (LOX IMVI melanoma)?
The TGI was greater than 100 µM.

What about the TGI (SF-295 CNS) of the same molecule?
Its TGI is 32.2 µM.

And the TGI (COLO 205 colon)?
The TGI was 27.8 µM.

And the TGI (HOP-62 NSCLC)?
Its TGI is 28.2 µM.

And the TGI (UACC-62 melanoma)?
Its TGI is 29.7 µM.

And the TGI (A549 NSCLC)?
Its TGI is 57.2 µM.

What about the TGI (SK-MEL-2 melanoma) of the same molecule?
Its TGI is 25.2 µM.

What about the TGI (MDA-MB-435) of the same molecule?
The TGI was 16 µM.

And the TGI (IGROV1 ovarian)?
The TGI was 34.5 µM.

What about the TGI (A498 renal) of the same molecule?
The TGI was 28.9 µM.

What about the TGI (NCI-H23 lung) of the same molecule?
The TGI was 42.8 µM.

And the TGI (DU-145 prostate)?
Its TGI is 31.7 µM.

What about the TGI (M14 melanoma) of the same molecule?
The TGI was 50.7 µM.

What about the TGI (MCF7 breast) of the same molecule?
Its TGI is 45.9 µM.

What about the TGI (HCT-116 colon) of the same molecule?
The TGI was greater than 100 µM.

What about the TGI (HCT-15 colon) of the same molecule?
The TGI was greater than 100 µM.

What about the TGI (K-562 leukemia) of the same molecule?
The TGI was 14.8 µM.

What about the TGI (OVCAR-3 ovarian) of the same molecule?
Its TGI is 27.5 µM.

What about the TGI (HOP-92 NSCLC) of the same molecule?
The TGI was 23.7 µM.

What about the TGI (T-47D breast) of the same molecule?
The TGI was 44.5 µM.

`CCCCCCCCCCCCc1ccc(S(=O)(=O)O)cc1.[Zn+2]` was tested. Which TGI (PC-3 prostate) did it give?
The TGI was greater than 100 µM.

What about the TGI (SK-MEL-28 melanoma) of the same molecule?
The TGI was greater than 100 µM.

What about the TGI (MDA-N) of the same molecule?
The TGI was greater than 100 µM.

What about the TGI (MOLT-4 leukemia) of the same molecule?
Its TGI is greater than 100 µM.

And the TGI (CAKI-1 renal)?
The TGI was greater than 100 µM.

And the TGI (786-0 renal)?
The TGI was greater than 100 µM.

What about the TGI (EKVX NSCLC) of the same molecule?
Its TGI is greater than 100 µM.

What about the TGI (SNB-75 CNS) of the same molecule?
Its TGI is greater than 100 µM.

And the TGI (UACC-257 melanoma)?
The TGI was greater than 100 µM.

What about the TGI (TK-10 renal) of the same molecule?
The TGI was greater than 100 µM.

And the TGI (OVCAR-8 ovarian)?
Its TGI is greater than 100 µM.

What about the TGI (NCI-H226 lung) of the same molecule?
Its TGI is greater than 100 µM.

And the TGI (SNB-19 CNS)?
The TGI was greater than 100 µM.

And the TGI (UO-31 renal)?
The TGI was greater than 100 µM.

What about the TGI (ACHN renal) of the same molecule?
The TGI was greater than 100 µM.

And the TGI (NCI-H460 lung)?
The TGI was greater than 100 µM.

What about the TGI (U251 CNS) of the same molecule?
The TGI was greater than 100 µM.

What about the TGI (SK-MEL-5 melanoma) of the same molecule?
Its TGI is greater than 100 µM.

What about the TGI (MDA-MB-231 breast) of the same molecule?
The TGI was greater than 100 µM.

And the TGI (SW-620 colon)?
Its TGI is greater than 100 µM.

And the TGI (SK-OV-3 ovarian)?
Its TGI is greater than 100 µM.

And the TGI (CCRF-CEM leukemia)?
The TGI was greater than 100 µM.

What about the TGI (RXF 393 renal) of the same molecule?
The TGI was greater than 100 µM.

What about the TGI (SF-268 CNS) of the same molecule?
The TGI was greater than 100 µM.

What about the TGI (SF-539 CNS) of the same molecule?
Its TGI is greater than 100 µM.

And the TGI (RPMI-8226 leukemia)?
Its TGI is greater than 100 µM.

What about the TGI (KM12 colon) of the same molecule?
The TGI was greater than 100 µM.

What about the TGI (MALME-3M melanoma) of the same molecule?
The TGI was greater than 100 µM.

What about the TGI (SN12C renal) of the same molecule?
The TGI was greater than 100 µM.

What about the TGI (HL-60(TB) leukemia) of the same molecule?
The TGI was greater than 100 µM.

And the TGI (HS 578T breast)?
The TGI was greater than 100 µM.

What about the TGI (OVCAR-5 ovarian) of the same molecule?
Its TGI is greater than 100 µM.

What about the TGI (HCC-2998 colon) of the same molecule?
The TGI was greater than 100 µM.

And the TGI (LOX IMVI melanoma)?
Its TGI is greater than 100 µM.

And the TGI (SF-295 CNS)?
Its TGI is greater than 100 µM.

And the TGI (COLO 205 colon)?
The TGI was greater than 100 µM.

And the TGI (HOP-62 NSCLC)?
Its TGI is greater than 100 µM.

What about the TGI (HT29 colon) of the same molecule?
The TGI was greater than 100 µM.

And the TGI (NCI/ADR-RES ovarian)?
Its TGI is greater than 100 µM.

And the TGI (UACC-62 melanoma)?
Its TGI is greater than 100 µM.

And the TGI (A549 NSCLC)?
The TGI was greater than 100 µM.

And the TGI (MDA-MB-435)?
Its TGI is greater than 100 µM.

What about the TGI (IGROV1 ovarian) of the same molecule?
The TGI was 77.2 µM.

And the TGI (A498 renal)?
Its TGI is 95.9 µM.

What about the TGI (NCI-H23 lung) of the same molecule?
The TGI was greater than 100 µM.

What about the TGI (OVCAR-4 ovarian) of the same molecule?
Its TGI is greater than 100 µM.

What about the TGI (DU-145 prostate) of the same molecule?
The TGI was greater than 100 µM.

What about the TGI (M14 melanoma) of the same molecule?
The TGI was greater than 100 µM.

What about the TGI (MCF7 breast) of the same molecule?
The TGI was greater than 100 µM.

And the TGI (HCT-116 colon)?
Its TGI is greater than 100 µM.

And the TGI (HCT-15 colon)?
The TGI was greater than 100 µM.

And the TGI (K-562 leukemia)?
The TGI was greater than 100 µM.

And the TGI (OVCAR-3 ovarian)?
The TGI was greater than 100 µM.

What about the TGI (HOP-92 NSCLC) of the same molecule?
The TGI was greater than 100 µM.

What about the TGI (T-47D breast) of the same molecule?
The TGI was greater than 100 µM.
